A short description of series [1]: Toxicity in BALB/c mouse implanted with mouse 4T1 cells assessed as pathological changes in spleen at 50 mg/kg, ip measured after 25 days in presence of cisplatin by Hematoxylin -eosin staining based analysis. Format: organism-based. Conditions: in vivo, 600 h, time 25 day.
Series [2] can be described thus: Toxicity in BALB/c nude mouse xenografted with human MDA-MB-231 cells assessed as effect on mean corpuscular hemoglobin concentration at 50 mg/kg, ip measured after 30 days by routine blood test. Type of series: organism-based. Particulars: in vivo, 720 h, time 30 day.
Series [3] is described as follows: Toxicity in BALB/c mouse implanted wth mouse 4T1 cells assessed as effect on body weight at 50 mg/kg, ip measured after 23 days. Format: organism-based. Particulars: in vivo, 552 h, time 23 day.
Series [4] in a line: Toxicity in BALB/c mouse implanted with mouse 4T1 cells assessed as pathological changes in lung at 50 mg/kg, ip measured after 25 days by Hematoxylin -eosin staining based analysis. Format: organism-based. Particulars: in vivo, 600 h, time 25 day.
For series [5], the system named is MDA-MB-231. The series can be described thus: Antitumor activity against human MDA-MB-231 cells xenografted in BALB/c nude mouse assessed as reduction in HK2 expression level at 50 mg/kg, ip measured after 28 days. Type of series: functional, organism-based. Conditions: time 28.0 day. In general terms: Xenograft models place foreign cells or tissue in a host animal.

Series [6] concerns 4T1. The series can be described thus: Antitumor immunity against mouse 4T1 cells implanted in BALB/c mouse model assessed as increase in HMGB1 release in tumor. Type of series: functional, cell-based.
Series [7] concerns 4T1. The series can be described thus: Inhibition of colony formation in mouse 4T1 cells at 5 to 20 uM incubated for 48 hrs by giemsa staining based analysis. Format: functional, cell-based. Conditions: dose 5-20 µM.
The nature of series [8]: Toxicity in BALB/c mouse implanted with mouse 4T1 cells assessed as pathological changes in lung at 50 mg/kg, ip measured after 25 days in presence of cisplatin by Hematoxylin -eosin staining based analysis. Format: organism-based. Conditions: in vivo, 600 h, time 25 day.
Series [9] has as its system 4T1. In words: Antitumor activity against mouse 4T1 cells implanted in BALB/c mouse model assessed as reduction tumor cell proliferation at 50 mg/kg, ip measured after 25 days by H and E staining based analysis. Type of series: functional, organism-based. Conditions: time 25.0 day.
Series [10] addresses Protein cereblon/Hexokinase-2 (Mus musculus) (UniProt O08528+Q8C7D2). In words: PROTAC activity at CRBN/HK2 in mouse 4T1 cells assessed as […] ternary complex formation at 10 uM incubated for 24 hrs. Type of series: cell-based.
The target of series [11] is T1, Hexokinase-2 (Homo sapiens) (UniProt P52789).
T1 sequence (whole entry): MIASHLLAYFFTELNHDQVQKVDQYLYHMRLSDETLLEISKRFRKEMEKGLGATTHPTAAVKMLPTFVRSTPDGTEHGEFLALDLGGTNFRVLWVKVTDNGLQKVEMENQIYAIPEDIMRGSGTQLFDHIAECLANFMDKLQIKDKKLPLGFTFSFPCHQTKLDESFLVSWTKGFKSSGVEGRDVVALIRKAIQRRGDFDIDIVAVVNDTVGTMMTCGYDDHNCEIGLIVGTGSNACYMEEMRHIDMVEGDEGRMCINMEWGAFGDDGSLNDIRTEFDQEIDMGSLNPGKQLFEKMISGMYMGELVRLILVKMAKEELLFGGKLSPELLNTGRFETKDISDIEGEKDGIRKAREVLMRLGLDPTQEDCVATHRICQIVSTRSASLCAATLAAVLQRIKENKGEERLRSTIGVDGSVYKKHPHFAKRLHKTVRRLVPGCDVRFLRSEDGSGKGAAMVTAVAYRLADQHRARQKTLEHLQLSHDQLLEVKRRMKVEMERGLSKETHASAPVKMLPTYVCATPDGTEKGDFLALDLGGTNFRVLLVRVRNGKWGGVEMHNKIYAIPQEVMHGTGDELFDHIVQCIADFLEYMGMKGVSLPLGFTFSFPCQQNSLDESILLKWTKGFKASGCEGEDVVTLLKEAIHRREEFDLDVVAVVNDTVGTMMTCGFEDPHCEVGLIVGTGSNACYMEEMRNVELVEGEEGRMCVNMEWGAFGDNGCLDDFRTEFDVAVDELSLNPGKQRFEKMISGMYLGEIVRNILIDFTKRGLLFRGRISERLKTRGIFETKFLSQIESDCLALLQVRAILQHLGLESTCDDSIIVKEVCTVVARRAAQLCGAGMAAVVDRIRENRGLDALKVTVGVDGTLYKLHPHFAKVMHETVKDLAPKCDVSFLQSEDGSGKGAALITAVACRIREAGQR
In words: Induction of HK2 degradation in human MDA-MB-231 cells assessed as increase in VDAC expression at 20 uM measured for 36 hrs by Western blot analysis. Format: cell-based. A general note: In western blotting, separated proteins are transferred to a membrane and probed.

The target in series [12] is T1, Hexokinase-2 (Homo sapiens). The series can be described thus: Induction of HK2 degradation in human MDA-MB-231 cells assessed as decrease in Bcl-2 expression at 20 uM measured for 36 hrs by Western blot analysis. Format: cell-based.
The target of series [13] is T2, Hexokinase-2 (Mus musculus) (UniProt O08528).
T2 sequence (whole entry): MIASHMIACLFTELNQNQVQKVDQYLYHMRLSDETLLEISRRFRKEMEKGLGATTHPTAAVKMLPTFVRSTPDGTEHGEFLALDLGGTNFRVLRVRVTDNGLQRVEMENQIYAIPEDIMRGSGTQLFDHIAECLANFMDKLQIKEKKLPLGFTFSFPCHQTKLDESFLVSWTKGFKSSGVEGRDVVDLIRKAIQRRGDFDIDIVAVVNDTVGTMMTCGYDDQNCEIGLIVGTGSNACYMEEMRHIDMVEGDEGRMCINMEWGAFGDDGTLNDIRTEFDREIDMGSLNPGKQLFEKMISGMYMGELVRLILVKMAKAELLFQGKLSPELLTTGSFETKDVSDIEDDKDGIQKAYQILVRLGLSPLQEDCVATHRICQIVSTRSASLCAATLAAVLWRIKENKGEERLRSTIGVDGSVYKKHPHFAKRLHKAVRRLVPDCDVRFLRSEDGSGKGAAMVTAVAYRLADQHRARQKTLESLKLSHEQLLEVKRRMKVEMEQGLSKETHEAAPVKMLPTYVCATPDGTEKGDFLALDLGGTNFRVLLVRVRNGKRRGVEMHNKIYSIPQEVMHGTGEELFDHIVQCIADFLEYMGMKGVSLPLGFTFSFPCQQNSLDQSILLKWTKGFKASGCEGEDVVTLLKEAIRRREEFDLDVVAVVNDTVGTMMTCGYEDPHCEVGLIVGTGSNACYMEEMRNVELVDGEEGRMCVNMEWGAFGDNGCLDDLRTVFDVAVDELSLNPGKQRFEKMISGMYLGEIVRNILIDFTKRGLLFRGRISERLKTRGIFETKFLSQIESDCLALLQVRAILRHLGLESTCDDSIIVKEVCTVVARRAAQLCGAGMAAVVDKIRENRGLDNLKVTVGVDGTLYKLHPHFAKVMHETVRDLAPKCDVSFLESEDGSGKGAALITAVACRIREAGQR
The series can be described thus: Induction of HK2 degradation in mouse 4T1 cells at 20 uM measured for 36 hrs by Western blot analysis relative to control. Format: cell-based.

Series [14] concerns 4T1. In words: Antitumor activity against mouse 4T1 cells implanted in BALB/c mouse model assessed as reduction in HK2 expression level at 50 mg/kg, ip measured after 25 days by Western blot analysis. Format: functional, organism-based. Particulars: time 25.0 day.
Series [15] is described as follows: Toxicity in BALB/c mouse implanted with mouse 4T1 cells assessed as effect on mean corpuscular hemoglobin at 50 mg/kg, ip measured after 25 days by routine blood test. Conditions: in vivo, 600 h, time 25 day. Type of series: organism-based.

Activity calls are given as the source filed them. The calls are words filed in the database; no cut-off is given here.

This note sets out measurements from ChEMBL document CHEMBL5331124, “Degradation of Hexokinase 2 Blocks Glycolysis and Induces GSDME-Dependent Pyroptosis to Amplify Immunogenic Cell Death for Breast Cancer Therapy” (J Med Chem, 2023).

Sequence of Protein cereblon/Hexokinase-2 (Mus musculus) (Q8C7D2 whole entry, looked up, one chain of several): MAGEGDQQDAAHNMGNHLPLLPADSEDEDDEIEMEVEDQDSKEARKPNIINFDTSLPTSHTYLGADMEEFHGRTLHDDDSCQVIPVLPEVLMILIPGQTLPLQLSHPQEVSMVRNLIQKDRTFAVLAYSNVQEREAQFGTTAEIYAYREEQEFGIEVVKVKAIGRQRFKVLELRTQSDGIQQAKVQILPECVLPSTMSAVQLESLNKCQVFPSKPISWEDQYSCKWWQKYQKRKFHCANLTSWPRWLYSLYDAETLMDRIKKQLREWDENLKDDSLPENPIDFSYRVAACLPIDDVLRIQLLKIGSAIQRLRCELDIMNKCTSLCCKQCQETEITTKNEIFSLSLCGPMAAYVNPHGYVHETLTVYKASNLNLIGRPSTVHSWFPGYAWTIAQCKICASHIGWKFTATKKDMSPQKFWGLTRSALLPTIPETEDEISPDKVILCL

As for `O=C1CCC(N2C(=O)c3cccc(NCCCCNC(=O)c4nn(Cc5ccc(Cl)cc5Cl)c5ccccc45)c3C2=O)C(=O)N1` (stereo not given), the Activity entry in series [1] was “Non-Toxic”; in [2], “Non-Toxic”; in series [3], “Non-Toxic”; in [4], “Non-Toxic”; in series [8] it was “Non-Toxic”; in [13] it was 71.1%. In addition, the Activity result in series [15] was “Non-Toxic”. In addition, the result in [5], in series [6], in series [9], in series [10], in [11] and in [12] was Active. Moreover, in [14], the outcome was Active. Further, the inhibition entry in series [7] was “Active”.
